Patent US9574190B2, “Screening method for peptide binding to target molecule in pH-dependent manner” (The University of Tokyo, priority 2012, dated 2017)
Bridge positions count the residues as written; N and C are the ends. Square brackets hold non-standard residues; d marks the D form. Peptide text beside a SMILES is read from it. Tyr(3-NO2) = N[C@@H](Cc1ccc(O)c([N+](=O)[O-])c1)C(=O)O; dTyr(3-NO2) = N[C@H](Cc1ccc(O)c([N+](=O)[O-])c1)C(=O)O; Arg(NO2) = N=C(NCCC[C@H](N)C(=O)O)N[N+](=O)[O-]

Biological target: T1, FcRn (Homo sapiens, UniProt P55899)
T1 construct: human soluble FcRn chemically biotinated with NHS-biotin
Experiment: Biacore T100 measurement of dissociation constant of solid-phase synthesized peptide with immobilized FcRn
Type: binding
Method: In order to find whether a peptide alone interacts with FcRn in a pH dependent manner, the peptide 2G01D not having SGSGS on the C-terminal side of 8D-01 and amidated at the C-terminal was synthesized on a solid phase and a dissociation constant Kd binding constant was measured using Biacore T100 (GE Healthcare). FcRn was immobilized onto a sensor chip by an amine coupling method. The following is the peptide 2G01D:
On the other hand, a solid-phase synthesized peptide 2G01D was added as an analyte to a phosphate buffer having a pH 6.0 or 7.4 and a dissociation constant was measured.

T1 sequence (P55899 24-297 limits assumed): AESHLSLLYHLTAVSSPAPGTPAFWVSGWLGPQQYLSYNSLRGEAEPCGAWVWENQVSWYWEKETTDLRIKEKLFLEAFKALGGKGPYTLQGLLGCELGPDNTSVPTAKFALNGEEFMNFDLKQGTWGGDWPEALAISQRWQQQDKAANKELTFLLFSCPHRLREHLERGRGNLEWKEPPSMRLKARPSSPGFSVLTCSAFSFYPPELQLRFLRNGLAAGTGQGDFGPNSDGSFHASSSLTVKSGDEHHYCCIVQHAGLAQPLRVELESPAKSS
T1 sequence (P61769 21-119 partner): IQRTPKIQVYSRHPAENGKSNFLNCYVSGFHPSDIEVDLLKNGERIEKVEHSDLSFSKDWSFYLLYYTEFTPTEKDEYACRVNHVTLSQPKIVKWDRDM

`CC(C)C[C@@H]1NC(=O)[C@H](Cc2ccc(O)c([N+](=O)[O-])c2)NC(=O)[C@H](CC(C)C)NC(=O)[C@@H]2CCCN2C(=O)[C@H](CC(=O)O)NC(=O)CNC(=O)[C@H](CCCNC(=N)N[N+](=O)[O-])NC(=O)[C@H](CC(N)=O)NC(=O)[C@H](Cc2ccc(O)cc2)NC(=O)[C@H](CC(C)C)NC(=O)[C@H](Cc2ccc(O)c([N+](=O)[O-])c2)NC(=O)[C@H](Cc2ccccc2)NC(=O)[C@@H](Cc2ccc(O)c([N+](=O)[O-])c2)NC(=O)CSC[C@@H](C(=O)NCC(N)=O)NC1=O` [2G01D] ({CH2CO}-[dTyr(3-NO2)]F[Tyr(3-NO2)]LYN[Arg(NO2)]GDPL[Tyr(3-NO2)]LCG-NH2; thioether N-14) was tested, and the koff (pH 6.0, phosphate buffer) was 0.00394 s⁻¹, the kon (pH 6.0, phosphate buffer) was 925000 M⁻¹ s⁻¹ and the koff (pH 7.4, phosphate buffer) was 0.00955 s⁻¹. The kon (pH 7.4, phosphate buffer) was 32600 M⁻¹ s⁻¹.
